According to paper PMC12333940, “A prometabolite strategy inhibits cardiometabolic disease in an ApoE^–/– murine model of atherosclerosis” (JCI Insight, 2025):
Where “and” joins values, the source holds several entries; their conditions need not be identical. Identical values can stand only once.

Key:
Format in all cases: in vivo, mouse
ApoE^–/– mice on an HFD [1] = test: Oil Red O staining of aortic root plaque; parameters: ORO Quantification ORO+ Heart: unit not given here; conditions: individual mice, experiments 1 and 2
Protocol: (§1) For 6 weeks, mice were freely administered water, water containing 150 mM SerBut, or water containing an equimolar amount of NaBut. SerBut water was pH adjusted using 10 M NaOH to a final pH of 7.4. […] In concert, mice were fed an HFD with 42% from fat and 0.2% total cholesterol (Envigo, TD-88137) ad libitum. After 6 weeks, mice were euthanized. The lMLNs, ILNs, spleen, heart, and aorta were harvested and processed for flow cytometry analysis ([67]). The liver was harvested and part was homogenized in tissue protein extraction reagent buffer (Invitrogen, 78510) supplemented with protease inhibitor mini tablets (Thermo Fisher Scientific, PIA32955) for Western blotting and qPCR. The remaining liver was fixed with 4% paraformaldehyde and embedded in paraffin for histological analysis.
Hearts were fixed in 4% paraformaldehyde for 24 hours and cryopreserved with sucrose (15% sucrose for 24 hours, 30% sucrose for 24 hours, 1:1 30% sucrose and OCT) before being embedded in OCT (Thermo Fisher Scientific). Frozen embedded samples were sectioned at 8 μm until all 3 leaflets were visible. Aortic root sections were brought to room temperature and rehydrated with PBS. Staining solution was freshly prepared by mixing 3:2 Oil Red O (0.5% in isopropanol, Sigma Aldrich) to water. The solution was filtered through a 0.22 μm PES syringe filter (Millipore) and pipetted onto sections. After 15 minutes in a sealed dark chamber, sections were washed 3 times with water and imaged. Images were analyzed using QuPath (v0.5.0) (https://qupath.github.io). Each leaflet was circled broadly to include the plaque and then subsequently trained on the QuPath pixel classifier using the software’s artificial neural network. Training images were then tested and validated to identify the plaques to calculate their area and exclude non-plaque structures in the image. Plaque sizes were subsequently averaged and used to determine percentage Oil Red O–positive plaque area in the leaflet.

ApoE^–/– mice on an HFD [2] = test: Inflammatory cytokines in plasma (LEGENDPlex); parameters: Plasma LegendPlex IFNy / Plasma LegendPlex IL-1B / Plasma LegendPlex IL-6: unit not given here
Protocol: (§2) SerBut water was pH adjusted using 10 M NaOH to a final pH of 7.4. […] After 6 weeks, mice were euthanized. […] The liver was harvested and part was homogenized in tissue protein extraction reagent buffer (Invitrogen, 78510) supplemented with protease inhibitor mini tablets (Thermo Fisher Scientific, PIA32955) for Western blotting and qPCR. […] Blood chemical analysis was performed on an Alfa […] Chemistry Analyzer. Reagent kits from Alfa Wasserman were used according to manufacturer's instructions to analyze plasma: lipase (catalog SA1045), HDL-C (catalog SA2038, LDL-C (catalog SA1040), AST (catalog SA1053), ALT (catalog SA1052). A LEGENDPlex was utilized to analyze the concentrations of inflammatory cytokines (BioLegend).

ApoE^–/– mice on an HFD [3] = test: Flow cytometry of blood, lymph nodes and spleen; parameters: Treg / Th17 / F480+CD11b+ Macrophages / iNOS+ Macs / Arg1+ Macs: unit not given here
Protocol: SerBut water was pH adjusted using 10 M NaOH to a final pH of 7.4. […] After 6 weeks, mice were euthanized. The lMLNs, ILNs, spleen, heart, and aorta were harvested and processed for flow cytometry analysis ([67]). […] The remaining liver was fixed with 4% paraformaldehyde and embedded in paraffin for histological analysis.
Flow cytometry was performed using a BD LSRFortessa or a Cytek Aurora full-spectrum cytometer.

ApoE^–/– mice on an HFD [4] = test: Blood chemical analysis of plasma; parameters: Lipase / ALT / Altherogenic Lipids (Chol-HDL) / HDL-C / LDL-C: unit not given here
Protocol: as §2

ApoE^–/– mice on an HFD [5] = test: Histological grading and scoring of livers; parameters: key to Liver Grading and Staging: Lobular inflammation (CD3+): one focus in which more than 10 periductal CD3^+ lymphocytes are found in an ×200 field; 2 to 5 instances of more than 10 periductal CD3^+ immune cells in an ×200 field; 3: Any sample exceeding this threshold
Protocol: as §1
Sections (8 μm thick) were stained. Digital image files were created with an Olympus VS200 Research Slide Scanner (Olympus/Evident) with a Hamamatsu ORca-Fusion camera (Hamamatsu Photonics) at ×40 magnification. Individual images were created with the OlyVIA Viewer software (Olympus/Evident). Scoring and grading was performed by a pathologist as previously described ([48]). Immunohistochemistry grading was informed by age-matched WT controls. In age-matched WT controls, CD3^+ immune cells were seen scattered without distinct aggregate formation nor associated tissue reaction. In an ×400 field, we observed up to 25 CD3^+ immune cells scattered in an even distribution, with rare events of up to 10 periductal CD3^+ immune cells but with no associated ductal or parenchymal reaction. […] Furthermore, a score of 2 corresponds to 2 to 5 instances of more than 10 periductal CD3^+ immune cells in an ×200 field. Any sample exceeding this threshold was scored a 3.

[6] = Inguinal Lymph Node Flow, individual mice
[7] = Mesenteric Lymph Node Flow, individual mice
[8] = Blood Chemistry, 6wk, individual mice, experiments 1 and 2
[9] = liver, individual mice, 150 mM ad libitum for 6 weeks, HFD

In the case of `CCCC(=O)[O-].[Na+]` [NaBut, sodium butyrate, reference compound], the “ORO Quantification ORO+ Heart” value (ApoE^–/– mice on an HFD [1]) is reported as 19.7151 and 33.3577 and 43.2157 and 32.1745 and 46.8072 and 36.2576 and 32.4176 and 40.5144 and 34.2074 and 37.9228, the “plasma IL-1β” value (ApoE^–/– mice on an HFD [2]; 6 weeks) is reported as “trend toward reduction” and the “IL-6 and IFN-γ in plasma” value (ApoE^–/– mice on an HFD [2]; 6 weeks, compared with control groups) is reported as “did not”. The “Plasma LegendPlex IFNy” value (ApoE^–/– mice on an HFD [2]; plasma, individual mice) was 43.19 and 71.91 and 156.97 and 1.54 and 133.26 and 33.33 and 25.52 and 29.92 and 11.45, the “Plasma LegendPlex IL-1B” value (ApoE^–/– mice on an HFD [2]; plasma, individual mice) was 1.73 and 1.26 and 132.12 and 0.34 and 3.85 and 0.46 and 0.64 and the “Plasma LegendPlex IL-6” value (ApoE^–/– mice on an HFD [2]; plasma, individual mice) was 1.6 and 2.29 and 7.3 and 0.92 and 0.99 and 1.54. The “Arg1+ Macs” value (ApoE^–/– mice on an HFD [3]; [6]) was 1.5 and 2.34 and 2.81 and 2.38, the “F480+CD11b+ Macrophages” value (ApoE^–/– mice on an HFD [3]; [6]) was 0.62 and 0.34 and 0.21 and 0.27 and the Th17 (ApoE^–/– mice on an HFD [3]; [6]) was 4.92 and 5.5 and 5.4 and 13 and 8.24 and 3.69 and 4.14 and 8.43 and 4.57 and 3.89. For the same compound, the Th17/Treg (ApoE^–/– mice on an HFD [3]; [6]) was 0.4278 and 0.4365 and 0.4463 and 1.161 and 0.7423 and 0.2976 and 0.345 and 0.4153 and 0.3288 and 0.2701, the Treg (ApoE^–/– mice on an HFD [3]; [6]) was 11.5 and 12.6 and 12.1 and 11.2 and 11.1 and 12.4 and 12 and 20.3 and 13.9 and 14.4 and the “iNOS+ Macs” value (ApoE^–/– mice on an HFD [3]; [6]) was 2.2 and 5.7 and 2.33 and 5.26. For the same compound, the “Arg1+ Macs” value (ApoE^–/– mice on an HFD [3]; [7]) was 1.44 and 1.98 and 1.72 and 1.71, the “F480+CD11b+ Macrophages” value (ApoE^–/– mice on an HFD [3]; [7]) was 11.6 and 5.7 and 6.38 and 10.4 and the Th17 (ApoE^–/– mice on an HFD [3]; [7]) was 11.7 and 14.4 and 12.2 and 12.1 and 11.3 and 18.4 and 15.3. The Th17/Treg (ApoE^–/– mice on an HFD [3]; [7]) was 1.054 and 1.385 and 0.8652 and 1.008 and 0.8968 and 1.108 and 0.8895, the Treg (ApoE^–/– mice on an HFD [3]; [7]) was 11.1 and 10.4 and 14.1 and 12 and 12.6 and 16.6 and 17.2 and the “iNOS+ Macs” value (ApoE^–/– mice on an HFD [3]; [7]) was 2.42 and 0.43 and 0.69 and 0.94. The Th17 (ApoE^–/– mice on an HFD [3]; Spleen Flow, individual mice) was 1.11 and 0.85 and 1.17 and 1.19 and 1.09 and 1.43 and 1.41 and 1.08 and 1.22 and 0.97, the Th17/Treg (ApoE^–/– mice on an HFD [3]; Spleen Flow, individual mice) was 0.1535 and 0.1111 and 0.1425 and 0.1357 and 0.131 and 0.1783 and 0.1653 and 0.135 and 0.1432 and 0.1325 and the Treg (ApoE^–/– mice on an HFD [3]; Spleen Flow, individual mice) was 7.23 and 7.65 and 8.21 and 8.77 and 8.32 and 8.02 and 8.53 and 8 and 8.52 and 7.32. The “Blood Neutrophils: CD11b+Ly6G+ %CD45” value (ApoE^–/– mice on an HFD [3]; blood, individual mice) was 7.65 %CD45 and 9.07 %CD45 and 17.4 %CD45 and 8.36 %CD45 and 14.3 %CD45 and 19.3 %CD45 and 20.8 %CD45 and 17.3 %CD45 and 19.5 %CD45 and 14.8 %CD45 and 22.8 %CD45 and 4.26 %CD45 and 16.8 %CD45, the “Th17/Treg cell ratio” value (ApoE^–/– mice on an HFD [3]; spleen) was “lower Th17/Treg cell ratio” and the “lipase in the plasma” value (ApoE^–/– mice on an HFD [4]; 6 weeks) was “significant increase”. For the same compound, the “total cholesterol or triglycerides in the plasma” value (ApoE^–/– mice on an HFD [4]; 6 weeks) was “Neither SerBut nor NaBut influenced”, the “LDL-C as a fraction of total cholesterol” value (ApoE^–/– mice on an HFD [4]; 6 weeks, 150 mM in drinking water, HFD) was “significantly reduced” and the “Altherogenic Lipids (Chol-HDL)” value (ApoE^–/– mice on an HFD [4]; [8]) was 872 and 974 and 870 and 998 and 868 and 1098 and 1088 and 922 and 790 and 882. For the same compound, the HDL-C (ApoE^–/– mice on an HFD [4]; [8]) was 44 and 40 and 42 and 36 and 38, the LDL-C (ApoE^–/– mice on an HFD [4]; Blood Chemistry, individual mice, experiments 1 and 2) was 284 and 358 and 282 and 372 and 310 and 334 and 344 and 346 and 348 and 320 and the ALT (ApoE^–/– mice on an HFD [4]; plasma at 6 weeks, 150 mM in drinking water ad libitum with HFD, individual mice) was 35.16 and 44.74 and 39.32 and 26.1 and 40.12 and 26.24 and 30.52 and 29.96 and 35.92 and 47.84. For the same compound, the Lipase (ApoE^–/– mice on an HFD [4]; plasma at 6 weeks, 150 mM in drinking water with HFD) was 118 and 92 and 98 and 112 and 94 and 122 and 124 and 106, the “CD3^+ immune cell infiltration into the livers, lobular inflammation” value (ApoE^–/– mice on an HFD [5]; 6 weeks) was “Neither SerBut nor NaBut significantly reduced” and the “hepatocellular nuclear hypertrophy” value (ApoE^–/– mice on an HFD [5]; 6 weeks) was “suppressed”. The “Liver Grading and Staging: Balooning Grade, Hypertrophy” value (ApoE^–/– mice on an HFD [5]; [9]) was 2 and 1, the “Liver Grading and Staging: Lobular inflammation (CD3+)” value (ApoE^–/– mice on an HFD [5]; [9]) was 1 and 2 and 3 and 0 and the “Liver Grading and Staging: Steatosis Grade, Macro fat” value (ApoE^–/– mice on an HFD [5]; [9]) was 1 and 2. The “NAS score (steatosis, inflammation, Ballooning)” value (ApoE^–/– mice on an HFD [5]; [9]) was 4 and 5 and 6 and 3 and 2.
